We go through 14 compounds from PMC3001719, “The heme sensing response regulator HssR in Staphylococcus aureus but not the homologous RR23 in Listeria monocytogenes modulates susceptibility to the antimicrobial peptide plectasin” (BMC Microbiology, 2010).

Where only a bound is given, the exact number is not on record here.

The subject of assay [1] is S. aureus wild type and response regulator mutants. Description: Antibiotic susceptibility, commercial MIC technique (Trek). Type of assay: cell-based, Staphylococcus aureus. The following applies: dehydrated antimicrobials in microtitre wells, data not shown. How it is done:
(§1) Antimicrobial susceptibility to ampicillin, gentamicin, sulfa/trimethoprim, rifampicin, tetracycline, amoxy/clavulan, cephalotin, clindamycin, enrofloxacin, fusidic acid and oxacillin was performed with a commercially available MIC technique using dehydrated antimicrobials in microtitre wells (Trek Diagnostic Systems Ltd., UK).

Assay [2] deals with L. monocytogenes wild type and response regulator mutant. The assay is described as above. Type of assay: cell-based, Listeria monocytogenes. The following applies: dehydrated antimicrobials in microtitre wells, data not shown. As to the method:
as §1

In assay [3] the test system is S. aureus 15981 wild type. The assay can be described thus: MIC, microbroth dilution. As to conditions: MHB pH 7.4, 5.0 × 10^5 CFU/ml, 18-24 h at 37°C, visual growth. The format is cell-based, Staphylococcus aureus. As to the method: (§2) Protamine was purchased from Sigma (P4020-5G). Plectasin, eurocin, novicidin, and novispirin G10 were supplied by Department of Antiinfective Discovery, Novozymes A/S. The host defence peptides were dissolved in 0.01% acetic acid/0.1% bovine serum albumin (Sigma, A7906).
(§3) Minimal inhibitory concentrations (MIC) of plectasin, eurocin, protamine, novicidin, and novispirin G10 were determined using a microbroth dilution method. Colonies from a BHI plate incubated overnight at 37 °C were suspended in MHB pH 7.4 to an absorbance at 546 nm of 0.11-0.12 at 546 nm (approx. 1.0 × 10^8 CFU/ml) and diluted in MHB to a concentration of 5.0 × 10^5 CFU/ml. Ninety μl of bacterial suspension was incubated with 10 μl of peptide solution in polypropylene 96-well plates (Nunc, 442587) for 18-24 h at 37°C. The peptide solutions were made fresh on the day of assay. The range of concentrations assayed were 0.25-256 μg/ml for plectasin and eurocin, 0.125-128 μg/ml for protamine and novispirin G10, and 0.031-32 μg/ml for novicidin. MIC was the lowest peptide concentration at which visual growth was inhibited.
On the technique in general: In broth dilution the organism is exposed to a series of concentrations in liquid medium.

Assay [4] has as its system S. aureus 15981 ΔTCS15 (hssRS) deletion mutant. The assay can be described thus: MIC, microbroth dilution. As to conditions: MHB pH 7.4, 5.0 × 10^5 CFU/ml, 18-24 h at 37°C, visual growth. The format is cell-based, Staphylococcus aureus. As to the method: as §2, §3
The subject of assay [5] is S. aureus 8325-4 hssR (transduced mutant). The assay can be described thus: MIC, microbroth dilution. Type of assay: cell-based, Staphylococcus aureus. The following applies: transduced 8325-4 hssR mutant, MHB pH 7.4, 5.0 × 10^5 CFU/ml, 18-24 h at 37°C, visual growth. As to the method: as §2, §3
Assay [6] concerns S. aureus 8325-4 hssR::bursa transposon mutant. Description: MIC, microbroth dilution. The following applies: MHB pH 7.4, 5.0 × 10^5 CFU/ml, 18-24 h at 37°C, visual growth. The format is cell-based, Staphylococcus aureus. As to the method: as §2, §3
The test system of assay [7] is S. aureus 8325-4 wild type. Description: MIC, microbroth dilution. The format is cell-based, Staphylococcus aureus. As to conditions: MHB pH 7.4, 5.0 × 10^5 CFU/ml, 18-24 h at 37°C, visual growth. As to the method:
as §2, §3

For assay [8], the system named is L. monocytogenes LO28 RR23 (rr23 insertion mutant). The assay can be described thus: MIC, microbroth dilution. The format is cell-based, Listeria monocytogenes. As to conditions: MHB pH 7.4, 5.0 × 10^5 CFU/ml, 18-24 h at 37°C, visual growth. As to the method: as §2, §3
The test system of assay [9] is L. monocytogenes LO28 wild type. The assay can be described thus: MIC, microbroth dilution. Type of assay: cell-based, Listeria monocytogenes. As to conditions: MHB pH 7.4, 5.0 × 10^5 CFU/ml, 18-24 h at 37°C, visual growth. As to the method: as §2, §3
Another assay deals with S. aureus. The assay can be described thus: ATP leakage (intracellular and extracellular ATP, bioluminescence). The format is cell-based, Staphylococcus aureus. The following applies: 50 mM HEPES pH 7.0 with 0.2% glucose, vs peptide dilution buffer, two independent experiments; for ATP leakage: S. aureus, 1,000 μg/ml peptide. How it is done:
(§4) L. monocytogenes and S. aureus were grown in TSB at 37°C. Bacteria were harvested (10 min at 3000 RPM) at mid-exponential phase (absorbance at 546 nm of 2.5 ± 0.2 and 1.0 ± 0.2 for S. aureus and L. monocytogenes, respectively), washed once in 50 mM potassium phosphate buffer pH 7.0 and once in 50 mM HEPES buffer pH 7.0. The pellet was resuspended in 50 mM HEPES pH 7.0 to a final absorbance at 546 nm of 10. Bacteria were stored on ice and used within 5 hours. […] ATP was determined using a bioluminescence kit (Sigma, FLAA-1KT) and a BioOrbit 1253 luminometer. Total ATP content was determined by rapidly permeabilising 20 μl cell suspension with 80 μl dimethyl sulfoxide. The cell suspension was diluted in 4.9 ml sterile water, and ATP content was determined in 100 μl of the preparation as described by the manufacturer. To determine the extracellular ATP concentration, the 20 μl cell suspension was mixed with 80 μl sterile water and analyzed as described above. Intracellular ATP concentrations were calculated by using the intracellular volumes of 0.85 and 1.7 μm^3 for S. aureus and L. monocytogenes, respectively. The number of cells in suspension was determined by plate spreading.

The next assay concerns L. monocytogenes. The description is as above. The format is cell-based, Listeria monocytogenes. As to conditions: 50 mM HEPES pH 7.0 with 0.2% glucose, vs peptide dilution buffer; for ATP leakage: L. monocytogenes, 1,000 μg/ml peptide. How it is done:
as §4

Assay [10] deals with S. aureus 8325-4 hssR mutant. Description: Growth in TSB with plectasin and/or hemin. Type of assay: cell-based, Staphylococcus aureus. As to conditions: hemin 4 μM, 37°C, with or without plectasin, hssR mutant. As to the method: (§5) Overnight cultures of S. aureus were diluted to an absorbance at 600 nm of 0.05 in TSB with and without 4 μM hemin and/or 35 μg/ml plectasin and grown at 37°C. Measurements of the absorbance were made every 30 minutes.

Assay [11] relates to S. aureus 8325-4 wild type. Description: Growth in TSB with plectasin and/or hemin. As to conditions: hemin 4 μM, 37°C, absorbance at 600 nm. The format is cell-based, Staphylococcus aureus. As to the method:
as §5

Assay [12] concerns hrtAB efflux system expression. The following applies: exposure to hemin, transcriptional activation by HssR; cited from earlier work. The text has this:
Both HrtAB and HssRS are required for growth of S. aureus in hemin [14].

Assay [13] deals with S. aureus 8325-4 hssR::bursa/pRMC2-hssRS (complementation of hssR transposon mutant). The assay can be described thus: MIC, microbroth dilution. Type of assay: cell-based, Staphylococcus aureus. The following applies: 8325-4 hssR::bursa/pRMC2-hssRS complemented mutant; microbroth dilution, MHB pH 7.4, 5.0 × 10^5 CFU/ml, 18-24 h at 37°C, visual growth. How it is done: as §2, §3

For assay [14], the system named is plasmid DNA (pBluescript II SK+). Description: DNA-binding analysis by in vitro gel retardation. The following applies: 100 ng plasmid DNA with increasing amounts of peptide, 1 h at room temperature, data not shown. As to the method:
Gel retardation analysis were performed as described by Nan et al by mixing 100 ng of plasmid DNA (pBluescript II SK^+(Stratagene)) with increasing amounts of peptide in 20 μl binding buffer (5% glycerol, 10 mM Tris, 1 mM EDTA, 1 mM dithiothreitol, 20 mM KCL and 50 μg ml^-1 bovine serum albumin). Reaction mixtures were incubated 1 h at room temperature and subjected to 1% agarose gel electrophoresis and visualised using ethidium bromide.

In general, MIC refers to the lowest concentration found to suppress growth.

Turning to `CCC[C@@H]1C[C@@H](C(=O)N[C@@H]([C@H]2O[C@H](SC)[C@H](O)[C@@H](O)[C@H]2O)[C@H](C)Cl)N(C)C1` [clindamycin], the “Change in MIC, wild type vs response regulator mutants” value in assay [1] is “No change in MIC values”. Besides, in [2], the “Change in MIC, wild type vs response regulator mutant” value is recorded as “No change in MIC values”.
Regarding protamine, the MIC in assay [3], in [4], in [5], in [6], in assay [7] and in assay [8] was 16 µg/mL throughout. In assay [9], this compound displayed a minimal inhibitory concentration (MIC) of 16 µg/mL. Further, the ATP leakage entry in the assay on S. aureus and in the assay with L. monocytogenes was “increased ATP leakage” each time.
On to novicidin, for which the minimal inhibitory concentration (MIC) in assay [3], in [4], in assay [5], in assay [6], in assay [7] and in [8] was 1 µg/mL in each case. Also, the MIC in assay [9] is 1 µg/mL. For the same compound, the ATP leakage entry with S. aureus and in the assay on L. monocytogenes was “increased ATP leakage” each time.
In the case of `CCN1CCN(c2cc3c(cc2F)c(=O)c(C(=O)O)cn3C2CC2)CC1` [enrofloxacin], the “Change in MIC, wild type vs response regulator mutants” value in assay [1] is “No change in MIC values”. Further, the “Change in MIC, wild type vs response regulator mutant” value in assay [2] is on record as “No change in MIC values”.
For `CC1(C)S[C@@H]2[C@H](NC(=O)[C@H](N)c3ccccc3)C(=O)N2[C@H]1C(=O)O` [ampicillin], the “Change in MIC, wild type vs response regulator mutants” value in assay [1] was “No change in MIC values”. Besides, in [2], the “Change in MIC, wild type vs response regulator mutant” value is recorded as “No change in MIC values”.
As for `CNC(C)C1CCC(N)C(OC2C(N)CC(N)C(OC3OCC(C)(O)C(NC)C3O)C2O)O1` (centres unmarked) [gentamicin], the “Change in MIC, wild type vs response regulator mutants” value in assay [1] was “No change in MIC values”. Moreover, the “Change in MIC, wild type vs response regulator mutant” value in assay [2] was “No change in MIC values”.
Turning to `CO[C@H]1/C=C/O[C@@]2(C)Oc3c(C)c(O)c4c(O)c(c(/C=N/N5CCN(C)CC5)c(O)c4c3C2=O)NC(=O)/C(C)=C\C=C\[C@H](C)[C@H](O)[C@@H](C)[C@@H](O)[C@@H](C)[C@H](OC(C)=O)[C@@H]1C` [rifampicin], in assay [1], the “Change in MIC, wild type vs response regulator mutants” value is “No change in MIC values”. The “Change in MIC, wild type vs response regulator mutant” value in assay [2] is on record as “No change in MIC values”.
As for hemin, the “Growth in the presence of hemin” value was “almost completely inhibited” in assay [10]; “only affected by plectasin (35 μg/ml) and not hemin” in assay [11]. The “Increase of expression of hrtAB efflux system” value in assay [12] is listed as 45 fold.
`CC(=O)OCC1=C(C(=O)O)N2C(=O)[C@@H](NC(=O)Cc3cccs3)[C@H]2SC1` [cephalotin]: in assay [1], the “Change in MIC, wild type vs response regulator mutants” value is on record as “No change in MIC values”. In addition, the “Change in MIC, wild type vs response regulator mutant” value in assay [2] is given as “No change in MIC values”.
novispirin G10: the minimum inhibitory concentration (MIC) in assay [3] was over 128 µg/mL; in [7] it was 128 µg/mL; in assay [8], 16 µg/mL; in assay [9] it was 16 µg/mL.
As for `CN(C)[C@@H]1C(O)=C(C(N)=O)C(=O)[C@@]2(O)C(O)=C3C(=O)c4c(O)cccc4[C@@](C)(O)[C@H]3C[C@@H]12` [tetracycline], the “Change in MIC, wild type vs response regulator mutants” value in assay [1] is “No change in MIC values”. Also, the “Change in MIC, wild type vs response regulator mutant” value in assay [2] is reported as “No change in MIC values”.
Take eurocin: the MIC was 8 µg/mL in assay [3]; 32 µg/mL in assay [4]; 64 µg/mL in assay [5]; 64 µg/mL in assay [6]; 32 µg/mL in assay [13]; 32 µg/mL in assay [7]. Also, the minimal inhibitory concentration (MIC) in [9] worked out at 128 µg/mL. Further, the “ATP leakage (intracellular ATP concentration)” value in the assay with S. aureus (S. aureus, 500 μg/ml peptide) is given as “remained at the same level as the controls”; in the assay on L. monocytogenes (L. monocytogenes, 500 μg/ml peptide), “remained at the same level as the controls”. For the same compound, the “Binding to DNA” value in assay [14] is recorded as “unable to demonstrate binding”.
For the compound `CC(=O)O[C@H]1C[C@@]2(C)[C@@H](C[C@@H](O)[C@H]3[C@@]4(C)CC[C@@H](O)[C@@H](C)[C@@H]4CC[C@@]32C)/C1=C(\CCC=C(C)C)C(=O)O` [fusidic acid], in assay [1], the “Change in MIC, wild type vs response regulator mutants” value is recorded as “No change in MIC values”. Also, the “Change in MIC, wild type vs response regulator mutant” value in assay [2] was “No change in MIC values”.
For `Cc1onc(-c2ccccc2)c1C(=O)N[C@@H]1C(=O)N2[C@@H]1SC(C)(C)[C@@H]2C(=O)O` [oxacillin], the “Change in MIC, wild type vs response regulator mutants” value in [1] was “No change in MIC values”. Also, in assay [2], the “Change in MIC, wild type vs response regulator mutant” value was “No change in MIC values”.
